# Assay results: ChEMBL document CHEMBL6074711, “Design, Synthesis, and Activity Evaluation of C-23-Modified 5-O-Mycaminosyltylonolide Derivatives” (ACS Med Chem Lett, 2024); call rule not given here
# Assays:
# [1] = Toxicity in Kunming mouse assessed as histopathological changes in heart at 80 mg/kg/day, IG measured for 1 week; type: organism-based; settings: in vivo, po, 168 h, time 1 weeks
# Escherichia coli [2] = assay: Antibacterial activity against Escherichia coli ATCC25922 at pH 7; type: functional
# Escherichia coli [3] = assay: Induction of resistance development in Escherichia coli ATCC25922 treated daily with continuous passaging measured after 12 passages by absorbance based assay; type: functional; settings: ATCC25922, 288 h, time 12 day
# Escherichia coli [4] = assay: Induction of resistance development in Escherichia coli ATCC25922 treated daily with continuous passaging measured after 8 passages by absorbance based assay; type: functional; settings: ATCC25922, 192 h, time 8 day
# Escherichia coli [5] = assay: Antibacterial activity against drug-resistant Escherichia coli clinical isolate 1322 incubated for 16 to 20 hrs by broth microdilution method; type: functional; settings: time 16-20 hrs
# [6] = tested on: Stenotrophomonas maltophilia; assay: Bactericidal activity against Stenotrophomonas maltophilia ATCC17808 incubated for 20 to 24 hrs; type: functional; settings: time 20-24 hrs
# Escherichia coli [7] = assay: Bactericidal activity against Escherichia coli ATCC25922 incubated for 20 to 24 hrs; type: functional; settings: time 20-24 hrs
# Staphylococcus aureus [8] = assay: Antibacterial activity against Staphylococcus aureus ATCC25923 incubated for 16 to 20 hrs by broth microdilution method; type: functional; settings: time 16-20 hrs
# Escherichia coli [9] = assay: Antibacterial activity against Escherichia coli ATCC25922 incubated for 20 to 24 hrs; type: functional; settings: time 20-24 hrs
# Escherichia coli [10] = assay: Ratio of MBC to MIC for Escherichia coli ATCC25922 incubated for 20 to 24 hrs; type: functional; settings: time 20-24 hrs
# Escherichia coli [11] = assay: Bactericidal activity against Escherichia coli ATCC25922 at MIC incubated for 5 hrs by time-kill assay relative to control; type: functional
# Staphylococcus aureus [12] = assay: Antibacterial activity against Staphylococcus aureus ATCC25923 at pH 7.60; type: functional
# Staphylococcus aureus [13] = assay: Ratio of MBC to MIC for Staphylococcus aureus ATCC25923 incubated for 20 to 24 hrs; type: functional; settings: time 20-24 hrs
# Escherichia coli [14] = assay: Antibacterial activity against Escherichia coli ATCC25922 at pH 7.80; type: functional
# [15] = Toxicity in Kunming mouse assessed as histopathological changes in spleen at 80 mg/kg/day, IG measured for 1 week; type: organism-based; settings: in vivo, po, 168 h, time 1 weeks
# Escherichia coli [16] = assay: Antibacterial activity against Escherichia coli ATCC25922 under 10^4 CFU/ml of bacterial inoculum culture by absorbance based assay; type: functional
# Escherichia coli [17] = assay: Antibacterial activity against Escherichia coli ATCC25922 at pH 7.20; type: functional
# [18] = Cytotoxicity against mouse HT-22 cells incubated for 72 hrs by MTT assay; type: toxicity, cell-based
# [19] = Toxicity in Kunming mouse assessed as histopathological changes in lung at 80 mg/kg/day, IG measured for 1 week; type: organism-based; settings: in vivo, po, 168 h, time 1 weeks
# [20] = tested on: Stenotrophomonas maltophilia; assay: Ratio of MBC to MIC for Stenotrophomonas maltophilia ATCC17808 incubated for 20 to 24 hrs; type: functional; settings: time 20-24 hrs
# Staphylococcus aureus [21] = assay: Antibacterial activity against Staphylococcus aureus ATCC25923 at pH 6.80; type: functional
# [22] = tested on: Stenotrophomonas maltophilia; assay: Antibacterial activity against Stenotrophomonas maltophilia ATCC17808 incubated for 16 to 20 hrs by broth microdilution method; type: functional; settings: time 16-20 hrs
# [23] = Toxicity in Kunming mouse assessed as histopathological changes in kidney at 80 mg/kg/day, IG measured for 1 week; type: organism-based; settings: in vivo, po, 168 h, time 1 weeks
# Escherichia coli [24] = assay: Induction of resistance development in Escherichia coli ATCC25922 treated daily with continuous passaging measured after 19 passages by absorbance based assay; type: functional; settings: ATCC25922, 456 h, time 19 day
# Escherichia coli [25] = assay: Antibacterial activity against Escherichia coli ATCC25922 under 10^6 CFU/ml of bacterial inoculum culture by absorbance based assay; type: functional
# Escherichia coli [26] = assay: Antibacterial activity against drug-resistant Escherichia coli clinical isolate 1333 incubated for 16 to 20 hrs by broth microdilution method; type: functional; settings: time 16-20 hrs
# Escherichia coli [27] = assay: Antibacterial activity against Escherichia coli ATCC25922 under 10^5 CFU/ml of bacterial inoculum culture by absorbance based assay; type: functional
# [28] = Toxicity in Kunming mouse assessed as histopathological changes in liver at 80 mg/kg/day, IG measured for 1 week; type: organism-based; settings: in vivo, po, 168 h, time 1 weeks
# Staphylococcus aureus [29] = assay: Antibacterial activity against Staphylococcus aureus ATCC25923 incubated for 20 to 24 hrs; type: functional; settings: time 20-24 hrs
# Escherichia coli [30] = assay: Antibacterial activity against Escherichia coli ATCC25922 at pH 7.60; type: functional
# Enterococcus faecalis [31] = assay: Bactericidal activity against Enterococcus faecalis ATCC29212 incubated for 20 to 24 hrs; type: functional; settings: time 20-24 hrs
# Staphylococcus aureus [32] = assay: Induction of resistance development in Staphylococcus aureus ATCC25923 treated daily with continuous passaging measured after 13 passages by absorbance based assay; type: functional; settings: ATCC25923, 312 h, time 13 day
# [33] = tested on: Stenotrophomonas maltophilia; assay: Antibacterial activity against Stenotrophomonas maltophilia ATCC17808 incubated for 20 to 24 hrs; type: functional; settings: time 20-24 hrs
# Escherichia coli [34] = assay: Antibacterial activity against Escherichia coli ATCC25922 at pH 6.80; type: functional
# Staphylococcus aureus [35] = assay: Bactericidal activity against Staphylococcus aureus ATCC25923 at MIC incubated for 10 to 12 hrs by time-kill assay relative to control; type: functional; settings: time 10-12 hrs
# Staphylococcus aureus [36] = assay: Antibacterial activity against Staphylococcus aureus ATCC25923 at pH 7.40; type: functional
# Staphylococcus aureus [37] = assay: Antibacterial activity against Staphylococcus aureus ATCC25923 under 10^4 CFU/ml of bacterial inoculum culture by absorbance based assay; type: functional
# [38] = Selectivity index, ratio of IC50 for mouse HT-22 cells to MIC for methicillin-resistant Staphylococcus aureus; type: toxicity, cell-based
# Staphylococcus aureus [39] = assay: Bactericidal activity against Staphylococcus aureus ATCC25923 incubated for 20 to 24 hrs; type: functional; settings: time 20-24 hrs
# Escherichia coli [40] = assay: Antibacterial activity against Escherichia coli ATCC25922 under 10^7 CFU/ml of bacterial inoculum culture by absorbance based assay; type: functional
# Enterococcus faecalis [41] = assay: Ratio of MBC to MIC for Enterococcus faecalis ATCC29212 incubated for 20 to 24 hrs; type: functional; settings: time 20-24 hrs
# Staphylococcus aureus [42] = assay: Antibacterial activity against Staphylococcus aureus ATCC25923 at pH 7; type: functional
# Enterococcus faecalis [43] = assay: Antibacterial activity against Enterococcus faecalis ATCC29212 incubated for 20 to 24 hrs; type: functional; settings: time 20-24 hrs
# Staphylococcus aureus [44] = assay: Antibacterial activity against Staphylococcus aureus ATCC25923 under 10^6 CFU/ml of bacterial inoculum culture by absorbance based assay; type: functional
# Escherichia coli [45] = assay: Induction of resistance development in Escherichia coli ATCC25922 treated daily with continuous passaging measured for 20 passages by absorbance based assay; type: functional, organism-based; settings: time 20.0 day
# Staphylococcus aureus [46] = assay: Antibacterial activity against Staphylococcus aureus ATCC25923 under 10^5 CFU/ml of bacterial inoculum culture by absorbance based assay; type: functional
# Staphylococcus aureus [47] = assay: Induction of resistance development in Staphylococcus aureus ATCC25923 at 0.5 times MIC treated daily with continuous passaging measured for 20 passages by absorbance based assay; type: functional, organism-based; settings: time 20.0 day
# Staphylococcus aureus [48] = assay: Antibacterial activity against Staphylococcus aureus ATCC25923 at pH 7.80; type: functional
# Staphylococcus aureus [49] = assay: Induction of resistance development in Staphylococcus aureus ATCC25923 treated daily with continuous passaging measured after 7 passages by absorbance based assay; type: functional; settings: ATCC25923, 168 h, time 7 day
# Staphylococcus aureus [50] = assay: Antibacterial activity against drug-resistant Staphylococcus aureus clinical isolate M20 incubated for 16 to 20 hrs by broth microdilution method; type: functional; settings: time 16-20 hrs
# Staphylococcus aureus [51] = assay: Antibacterial activity against Staphylococcus aureus ATCC25923 under 10^7 CFU/ml of bacterial inoculum culture by absorbance based assay; type: functional
# Escherichia coli [52] = assay: Antibacterial activity against Escherichia coli ATCC25922 incubated for 16 to 20 hrs by broth microdilution method; type: functional; settings: time 16-20 hrs
# Escherichia coli [53] = assay: Antibacterial activity against Escherichia coli ATCC25922 at pH 7.40; type: functional
# Enterococcus faecalis [54] = assay: Antibacterial activity against Enterococcus faecalis ATCC29212 incubated for 16 to 20 hrs by broth microdilution method; type: functional; settings: time 16-20 hrs
# Staphylococcus aureus [55] = assay: Antibacterial activity against Staphylococcus aureus ATCC25923 at pH 7.20; type: functional
structure (smiles),measurement,setting,value
CC[C@H]1OC(=O)C[C@@H](O)[C@H](C)[C@@H](O[C@@H]2O[C@H](C)[C@@H](O)[C@H](N(C)C)[C@H]2O)[C@@H](CCN(C)Cc2cn(-c3cnc4ccccc4c3)nn2)C[C@@H](C)C(=O)/C=C/C(C)=C/[C@@H]1CNCc1cccc(C)c1,Activity,[1],Non-toxic
same,MIC,Escherichia coli [2],0.5 µg/mL
same,MIC,Escherichia coli [3],2 µg/mL
same,MIC,Escherichia coli [4],1 µg/mL
same,MIC,Escherichia coli [5],0.5 µg/mL
same,MBC,[6],8 µg/mL
same,MBC,Escherichia coli [7],4 µg/mL
same,MIC,Staphylococcus aureus [8],0.5 µg/mL
same,MIC,Escherichia coli [9],1 µg/mL
same,Ratio,Escherichia coli [10],4
same,Activity,Escherichia coli [11],100%
same,MIC,Staphylococcus aureus [12],0.25 µg/mL
same,Ratio,Staphylococcus aureus [13],2
same,MIC,Escherichia coli [14],0.125 µg/mL
same,Activity,[15],Non-toxic
same,MIC,Escherichia coli [16],0.125 µg/mL
same,MIC,Escherichia coli [17],0.5 µg/mL
same,IC50 at 72 h,[18],130 µg/mL
same,Activity,[19],Non-toxic
same,Ratio,[20],8
same,MIC,Staphylococcus aureus [21],1 µg/mL
same,MIC,[22],2 µg/mL
same,Activity,[23],Non-toxic
same,MIC,Escherichia coli [24],4 µg/mL
same,MIC,Escherichia coli [25],0.5 µg/mL
same,MIC,Escherichia coli [26],1 µg/mL
same,MIC,Escherichia coli [27],0.25 µg/mL
same,Activity,[28],Non-toxic
same,MIC,Staphylococcus aureus [29],0.5 µg/mL
same,MIC,Escherichia coli [30],0.125 µg/mL
same,MBC,Enterococcus faecalis [31],8 µg/mL
same,MIC,Staphylococcus aureus [32],2 µg/mL
same,MIC,[33],1 µg/mL
same,MIC,Escherichia coli [34],0.5 µg/mL
same,Activity,Staphylococcus aureus [35],100%
same,MIC,Staphylococcus aureus [36],0.5 µg/mL
same,MIC,Staphylococcus aureus [37],0.125 µg/mL
same,selectivity ratio,[38],130
same,MBC,Staphylococcus aureus [39],2 µg/mL
same,MIC,Escherichia coli [40],0.5 µg/mL
same,Ratio,Enterococcus faecalis [41],4
same,MIC,Staphylococcus aureus [42],0.5 µg/mL
same,MIC,Enterococcus faecalis [43],1 µg/mL
same,MIC,Staphylococcus aureus [44],0.25 µg/mL
same,Activity,Escherichia coli [45],Not active; Compound Induced Resistance More Slowly Than Control Drug Florfenicol
same,MIC,Staphylococcus aureus [46],0.25 µg/mL
same,Activity,Staphylococcus aureus [47],Not active; Compound Induced Resistance Less Rapidly Than That Of Control Drug Linezolid
same,MIC,Staphylococcus aureus [48],0.125 µg/mL
same,MIC,Staphylococcus aureus [49],1 µg/mL
same,MIC,Staphylococcus aureus [50],0.5 µg/mL
same,MIC,Staphylococcus aureus [51],0.5 µg/mL
same,MIC,Escherichia coli [52],0.5 µg/mL
same,MIC,Escherichia coli [53],0.25 µg/mL
same,MIC,Enterococcus faecalis [54],1 µg/mL
same,MIC,Staphylococcus aureus [55],0.5 µg/mL
